Experimental data reported in patent publication US12053465B2, “KCC2 expression enhancing compounds and uses thereof” (Whitehead Institute for Biomedical Research, priority 2017, dated 2024).

Experiments:
[1] = test system: KCC2 expression (KCC2-2A-luciferase reporter); assay: KCC2-2A-luciferase reporter compound screening with RTT KCC2 reporter neurons; format: cell-based, human; conditions: for B Score: MECP2-null RTT human KCC2 reporter neurons, LINCS, SMART, ICCB libraries, Luc/CTG normalized to in-plate DMSO, hit = B score >3; for KCC2 reporter activity in RTT neurons: RTT KCC2-2A-luciferase reporter neurons vs in-plate DMSO
In short: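 MECP2-null RTT human neurons carrying a KCC2-2A-luciferase reporter, differentiated 4 weeks, were treated with library compounds at 10 μM for 1–2 weeks at 37 °C. Lysate luciferase was normalized to CellTiter-Glo ATP per well and expressed as fold change over in-plate DMSO. Hits were called at B score >3.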

KCC2 expression [2] = assay: Western blot of KCC2 in cultured WT human neurons; format: cell-based; conditions: cultured WT human neurons (WIBR1); Western blot
KCC2 expression [3] = assay: Western blot of KCC2 in organotypic mouse brain slices; format: cell-based; conditions: organotypic neonatal mouse brain slices, treated 7 days, vs DMSO, MeBIO or medium-only control
immature mouse neurons = assay: Resting membrane potential and membrane capacitance of DIV6 immature mouse neurons; format: cell-based
human RTT neurons = assay: Neuronal morphology analysis of cultured human RTT neurons; format: cell-based; conditions: for neurite complexity (Sholl analysis): vs DMSO- or MeBIO-treated
Description: Moreover, a reduction in the number or the strength of excitatory glutamatergic synapses in RTT neurons has been observed in postmortem RTT patient brain samples (30), mouse models of RTT (53), and human stem cell-derived RTT neurons (54). Electrophysiology recording was utilized to assess whether KEECs could rescue the deficits in EGABA and excitatory synaptic transmission of RTT neurons. […] We further investigated whether the beneficial effect of KEECs is a direct result of the increases in neuronal KCC2 gene expression. […] Deficits in a number of morphological measurements, including nuclei size and neurite complexity and branching, are hallmarks of RTT neurons (54-56). […] To validate the morphological measurements, electrophysiological measurements of the neuronal membrane capacitance (Cm), an indicator of neuronal cell size (57) that is reduced in RTT neurons, were conducted. […] Fluorescent images of randomly-selected neurons were acquired on a Nikon Eclipse Ti epifluorescence microscope equipped with 20× lens. Nucleus size analysis of DAPI-stained neuronal nucleus were performed with ImageJ. Sholl analysis and measurements of the total neurite length and branch points were performed with the Simple Neurite Tracer plugin of the ImageJ software. Morphological analyses were carried out with about 60 randomly-selected neurons per treatment group. Image acquisition and analysis were carried out by different researchers, and automated analysis software pipeline were utilized to reduce human bias.

Compound | B Score [1] | KCC2 reporter activity in RTT neurons [1] | KCC2 expression (KCC2 expression [2]) | KCC2 protein level (KCC2 expression [3]) | resting membrane potential (immature mouse neurons) | nucleus size (human RTT neurons) | number of neurite branches (human RTT neurons) | total neurite length (human RTT neurons) | neurite complexity (Sholl analysis) (human RTT neurons) | membrane capacitance (immature mouse neurons; vs DMSO control)
O=C1Nc2cc(Br)ccc2/C1=C1/Nc2ccccc2/C1=N\O [BIO, (2Z,3E)-6′-bromo-3-(hydroxyimino)-[2,3′-biindolinylidene]-2′-one] | 3.42 | significant increase of KCC2 reporter activity | significantly increased KCC2 expression | enhanced KCC2 expression levels | does not significantly alter the resting membrane potential | significantly increase the nucleus size | significantly increase | significantly increase | significant increase in neurite complexity | 
O=C(c1ccc(/C=C/c2n[nH]c3ccccc23)cc1)N1CCNCC1 [KW-2449, (E)-(4-(2-(1H-indazol-3-yl)vinyl)phenyl)(piperazin-1-yl)methanone] | 5.45 | significant increase of KCC2 reporter activity | significant increase in KCC2 expression in a dose-dependent manner | enhanced KCC2 expression levels | does not significantly alter the resting membrane potential | significantly increase the nucleus size | significantly increase | significantly increase | significant increase in neurite complexity | significantly increase the membrane capacitance
